Assay results: article PMC5290327, “SC83288 is a clinical development candidate for the treatment of severe malaria” (Nature Communications, 2017)

Legend:
Test in all cases: KINOMEscan
Format in all cases: binding
Details in all cases: read-out: Remaining enzyme activity
[1] = molecular target: T1, TYK2(JHdomain-speudokinase) (Homo sapiens, UniProt P29597)
T1 construct: TYK2(JHdomain-speudokinase); purchased Ambit (DiscoverX) KINOMEscan; Cerep
Procedure, shortened: (§1)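 Competition binding: DNA-tagged kinase, immobilized active-site ligand and test compound were combined, and kinase left on beads was quantified by qPCR of the DNA tag. Kinases were T7 phage fusions grown in a BL21-derived E. coli host or were expressed in HEK-293 cells. SC81458 was tested at 10 μM final.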

BRAF = molecular target: T2, BRAF (Homo sapiens, UniProt P15056)
T2 construct: purchased Ambit (DiscoverX) KINOMEscan; Cerep
Procedure, shortened: as §1

PLK4 = molecular target: T3, PLK4 (Homo sapiens, UniProt O00444)
T3 construct: purchased Ambit (DiscoverX) KINOMEscan; Cerep
T3 sequence (O00444 whole entry): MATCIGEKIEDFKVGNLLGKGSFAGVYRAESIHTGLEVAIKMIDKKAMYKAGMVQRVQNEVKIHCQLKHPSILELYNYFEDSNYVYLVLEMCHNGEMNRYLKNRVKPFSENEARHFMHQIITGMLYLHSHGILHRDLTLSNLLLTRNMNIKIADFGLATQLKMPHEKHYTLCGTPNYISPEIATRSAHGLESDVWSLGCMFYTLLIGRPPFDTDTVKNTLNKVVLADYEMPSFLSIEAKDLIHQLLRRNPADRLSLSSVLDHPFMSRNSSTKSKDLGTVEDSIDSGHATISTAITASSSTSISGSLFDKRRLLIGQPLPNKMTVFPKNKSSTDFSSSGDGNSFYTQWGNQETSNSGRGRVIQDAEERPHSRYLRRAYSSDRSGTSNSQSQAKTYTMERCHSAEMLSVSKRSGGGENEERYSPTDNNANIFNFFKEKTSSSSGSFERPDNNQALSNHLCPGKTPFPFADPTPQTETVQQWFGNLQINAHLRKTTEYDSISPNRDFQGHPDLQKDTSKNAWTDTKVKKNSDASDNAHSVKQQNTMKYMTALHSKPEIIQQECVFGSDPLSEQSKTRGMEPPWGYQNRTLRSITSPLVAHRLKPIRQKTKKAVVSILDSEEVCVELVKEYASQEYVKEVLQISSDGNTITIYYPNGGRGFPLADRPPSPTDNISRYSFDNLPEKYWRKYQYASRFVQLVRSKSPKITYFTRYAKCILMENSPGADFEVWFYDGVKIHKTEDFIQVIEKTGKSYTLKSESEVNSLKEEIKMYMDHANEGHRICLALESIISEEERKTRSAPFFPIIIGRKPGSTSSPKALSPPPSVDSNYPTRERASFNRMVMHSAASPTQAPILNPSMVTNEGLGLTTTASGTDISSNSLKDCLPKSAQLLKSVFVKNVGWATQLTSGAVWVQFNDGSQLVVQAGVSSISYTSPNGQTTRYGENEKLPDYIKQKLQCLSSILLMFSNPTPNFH
Procedure, shortened: as §1

ABL1 = molecular target: T4, ABL1 (Homo sapiens, UniProt P00519)
T4 construct: purchased Ambit (DiscoverX) KINOMEscan; Cerep
Procedure, shortened: as §1

GSK3a = molecular target: T5, GSK3a (Homo sapiens, UniProt P49840)
T5 construct: purchased Ambit (DiscoverX) KINOMEscan; Cerep
Procedure, shortened: as §1

EPHB1 = molecular target: T6, EPHB1 (Homo sapiens, UniProt P54762)
T6 construct: purchased Ambit (DiscoverX) KINOMEscan; Cerep
Procedure, shortened: as §1

MAP4K4 = molecular target: T7, MAP4K4 (Homo sapiens, UniProt O95819)
T7 construct: purchased Ambit (DiscoverX) KINOMEscan; Cerep
Procedure, shortened: as §1

PDGFRb = molecular target: T8, PDGFRb (Homo sapiens, UniProt P09619)
T8 construct: purchased Ambit (DiscoverX) KINOMEscan; Cerep
Procedure, shortened: as §1

ABL1(T315I) = molecular target: T9, ABL1(T315I) (Homo sapiens, UniProt P00519, T315I)
T9 construct: purchased Ambit (DiscoverX) KINOMEscan; Cerep
Procedure, shortened: as §1

YSK4 = molecular target: T10, YSK4 (Homo sapiens, UniProt Q56UN5)
T10 construct: purchased Ambit (DiscoverX) KINOMEscan; Cerep
T10 sequence (Q56UN5 whole entry): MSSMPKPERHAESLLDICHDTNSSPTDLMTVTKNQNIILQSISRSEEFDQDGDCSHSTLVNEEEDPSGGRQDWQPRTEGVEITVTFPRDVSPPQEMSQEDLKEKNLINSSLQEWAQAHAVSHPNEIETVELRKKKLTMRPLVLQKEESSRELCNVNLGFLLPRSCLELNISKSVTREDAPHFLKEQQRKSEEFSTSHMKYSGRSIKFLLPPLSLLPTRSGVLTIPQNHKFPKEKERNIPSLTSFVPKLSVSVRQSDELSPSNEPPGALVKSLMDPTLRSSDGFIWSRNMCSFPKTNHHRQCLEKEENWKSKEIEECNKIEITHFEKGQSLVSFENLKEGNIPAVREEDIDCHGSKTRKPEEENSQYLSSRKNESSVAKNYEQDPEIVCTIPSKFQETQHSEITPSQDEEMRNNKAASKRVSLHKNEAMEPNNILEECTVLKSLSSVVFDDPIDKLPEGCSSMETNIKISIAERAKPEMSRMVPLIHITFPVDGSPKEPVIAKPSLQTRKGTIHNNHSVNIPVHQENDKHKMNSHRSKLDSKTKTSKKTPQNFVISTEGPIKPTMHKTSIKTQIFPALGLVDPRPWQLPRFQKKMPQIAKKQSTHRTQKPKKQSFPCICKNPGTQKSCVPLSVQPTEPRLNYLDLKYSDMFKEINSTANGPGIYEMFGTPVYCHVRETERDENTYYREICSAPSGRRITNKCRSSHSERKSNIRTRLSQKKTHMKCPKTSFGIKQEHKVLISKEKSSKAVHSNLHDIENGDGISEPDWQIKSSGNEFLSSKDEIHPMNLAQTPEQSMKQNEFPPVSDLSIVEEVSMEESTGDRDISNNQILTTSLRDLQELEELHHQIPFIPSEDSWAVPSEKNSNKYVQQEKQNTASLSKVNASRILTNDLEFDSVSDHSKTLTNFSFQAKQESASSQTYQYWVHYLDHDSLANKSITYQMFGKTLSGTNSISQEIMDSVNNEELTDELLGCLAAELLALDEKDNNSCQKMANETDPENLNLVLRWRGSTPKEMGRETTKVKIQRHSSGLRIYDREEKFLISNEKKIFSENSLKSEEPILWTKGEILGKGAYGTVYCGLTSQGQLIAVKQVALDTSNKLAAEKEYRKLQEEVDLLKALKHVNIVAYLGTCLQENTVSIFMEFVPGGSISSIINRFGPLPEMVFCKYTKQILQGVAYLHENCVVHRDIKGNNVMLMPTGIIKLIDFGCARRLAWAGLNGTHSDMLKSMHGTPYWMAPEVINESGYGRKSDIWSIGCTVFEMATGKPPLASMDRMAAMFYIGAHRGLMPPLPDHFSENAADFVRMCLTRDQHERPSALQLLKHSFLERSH
Procedure, shortened: as §1

ACVRL1 = molecular target: T11, ACVRL1 (Homo sapiens, UniProt P37023)
T11 construct: purchased Ambit (DiscoverX) KINOMEscan; Cerep
T11 sequence (P37023 22-503): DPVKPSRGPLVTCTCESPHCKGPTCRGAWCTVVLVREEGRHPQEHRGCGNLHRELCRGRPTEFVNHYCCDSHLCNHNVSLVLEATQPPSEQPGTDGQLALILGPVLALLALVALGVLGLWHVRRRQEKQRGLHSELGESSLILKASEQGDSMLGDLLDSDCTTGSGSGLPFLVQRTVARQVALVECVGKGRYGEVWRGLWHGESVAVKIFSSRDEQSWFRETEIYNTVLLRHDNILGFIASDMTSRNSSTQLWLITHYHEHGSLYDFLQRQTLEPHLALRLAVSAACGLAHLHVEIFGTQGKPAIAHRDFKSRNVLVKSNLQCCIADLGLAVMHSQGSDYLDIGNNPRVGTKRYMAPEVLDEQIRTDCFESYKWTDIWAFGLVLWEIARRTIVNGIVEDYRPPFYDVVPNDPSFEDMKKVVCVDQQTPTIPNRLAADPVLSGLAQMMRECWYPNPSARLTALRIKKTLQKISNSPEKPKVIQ
Procedure, shortened: as §1

CDK8 = molecular target: T12, CDK8 (Homo sapiens, UniProt P49336)
T12 construct: purchased Ambit (DiscoverX) KINOMEscan; Cerep
Procedure, shortened: as §1

CAMK1d = molecular target: T13, CAMK1d (Homo sapiens, UniProt Q8IU85)
T13 construct: purchased Ambit (DiscoverX) KINOMEscan; Cerep
T13 sequence (Q8IU85 whole entry): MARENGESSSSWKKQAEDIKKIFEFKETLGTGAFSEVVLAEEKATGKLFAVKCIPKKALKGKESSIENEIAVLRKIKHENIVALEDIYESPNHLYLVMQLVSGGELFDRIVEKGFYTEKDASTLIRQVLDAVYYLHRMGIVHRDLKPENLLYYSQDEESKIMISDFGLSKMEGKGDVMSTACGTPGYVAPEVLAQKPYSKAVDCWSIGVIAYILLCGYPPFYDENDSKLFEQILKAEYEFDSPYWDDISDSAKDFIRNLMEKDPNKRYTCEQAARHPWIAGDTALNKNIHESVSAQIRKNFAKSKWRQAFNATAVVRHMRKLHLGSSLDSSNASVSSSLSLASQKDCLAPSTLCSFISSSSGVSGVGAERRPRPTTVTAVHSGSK
Procedure, shortened: as §1

JNK1 = molecular target: T14, JNK1 (Homo sapiens, UniProt P45983)
T14 construct: purchased Ambit (DiscoverX) KINOMEscan; Cerep
T14 sequence (P45983 whole entry): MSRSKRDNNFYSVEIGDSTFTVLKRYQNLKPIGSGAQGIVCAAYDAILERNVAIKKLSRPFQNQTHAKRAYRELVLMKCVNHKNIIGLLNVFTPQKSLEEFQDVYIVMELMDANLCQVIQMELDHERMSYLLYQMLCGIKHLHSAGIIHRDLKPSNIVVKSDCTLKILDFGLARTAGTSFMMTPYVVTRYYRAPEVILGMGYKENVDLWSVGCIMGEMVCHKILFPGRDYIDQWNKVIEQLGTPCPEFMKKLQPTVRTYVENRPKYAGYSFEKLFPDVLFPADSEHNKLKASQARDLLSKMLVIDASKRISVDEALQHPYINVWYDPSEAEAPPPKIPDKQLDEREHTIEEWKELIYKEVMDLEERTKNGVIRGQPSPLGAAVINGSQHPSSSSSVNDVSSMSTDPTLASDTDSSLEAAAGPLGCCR
Procedure, shortened: as §1

ERK8 = molecular target: T15, ERK8 (Homo sapiens, UniProt Q8TD08)
T15 construct: purchased Ambit (DiscoverX) KINOMEscan; Cerep
Procedure, shortened: as §1

PKN2 = molecular target: T16, PKN2 (Homo sapiens, UniProt Q16513)
T16 construct: purchased Ambit (DiscoverX) KINOMEscan; Cerep
Procedure, shortened: as §1

FLT3(D835Y) = molecular target: T17, FLT3(D835Y) (Homo sapiens, UniProt P36888, D835Y)
T17 construct: purchased Ambit (DiscoverX) KINOMEscan; Cerep
Procedure, shortened: as §1

IRAK3 = molecular target: T18, IRAK3 (Homo sapiens, UniProt Q9Y616)
T18 construct: purchased Ambit (DiscoverX) KINOMEscan; Cerep
Procedure, shortened: as §1

MAP4K2 = molecular target: T19, MAP4K2 (Homo sapiens, UniProt Q12851)
T19 construct: purchased Ambit (DiscoverX) KINOMEscan; Cerep
Procedure, shortened: as §1

DAPK3 = molecular target: T20, DAPK3 (Homo sapiens, UniProt O43293)
T20 construct: purchased Ambit (DiscoverX) KINOMEscan; Cerep
Procedure, shortened: as §1

p38-alpha = molecular target: T21, p38-alpha (Homo sapiens, UniProt Q16539)
T21 construct: purchased Ambit (DiscoverX) KINOMEscan; Cerep
Procedure, shortened: as §1

PAK2 = molecular target: T22, PAK2 (Homo sapiens, UniProt Q13177)
T22 construct: purchased Ambit (DiscoverX) KINOMEscan; Cerep
T22 sequence (Q13177 whole entry): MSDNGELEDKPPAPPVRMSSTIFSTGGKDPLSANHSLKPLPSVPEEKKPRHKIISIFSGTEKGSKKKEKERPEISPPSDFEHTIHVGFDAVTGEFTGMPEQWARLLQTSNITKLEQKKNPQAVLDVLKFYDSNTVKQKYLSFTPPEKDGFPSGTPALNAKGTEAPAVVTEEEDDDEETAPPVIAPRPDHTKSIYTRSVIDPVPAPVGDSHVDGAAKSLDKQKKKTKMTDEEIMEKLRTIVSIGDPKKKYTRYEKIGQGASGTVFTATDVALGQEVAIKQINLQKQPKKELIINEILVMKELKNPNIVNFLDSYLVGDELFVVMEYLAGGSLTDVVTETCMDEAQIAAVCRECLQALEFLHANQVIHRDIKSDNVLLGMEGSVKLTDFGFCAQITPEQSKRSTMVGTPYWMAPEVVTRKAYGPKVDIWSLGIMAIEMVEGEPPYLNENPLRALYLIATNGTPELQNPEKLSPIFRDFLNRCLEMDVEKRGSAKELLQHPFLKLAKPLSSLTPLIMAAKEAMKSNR
Procedure, shortened: as §1

[2] = molecular target: T23, RPS6KA3(Kin.Dom.1-N-term) (Homo sapiens, UniProt P51812)
T23 construct: RPS6KA3(Kin.Dom.1-N-term); purchased Ambit (DiscoverX) KINOMEscan; Cerep
T23 sequence (P51812 68-327 limits assumed): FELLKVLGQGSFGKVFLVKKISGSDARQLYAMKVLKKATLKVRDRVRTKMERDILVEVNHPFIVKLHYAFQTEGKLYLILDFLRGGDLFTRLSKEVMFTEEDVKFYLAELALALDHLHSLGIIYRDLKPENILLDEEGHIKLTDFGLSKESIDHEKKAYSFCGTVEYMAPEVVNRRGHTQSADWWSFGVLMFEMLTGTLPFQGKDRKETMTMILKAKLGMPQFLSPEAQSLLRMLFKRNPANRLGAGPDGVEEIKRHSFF
Procedure, shortened: as §1

CDC2L1 = molecular target: T24, CDC2L1 (Homo sapiens, UniProt P21127)
T24 construct: purchased Ambit (DiscoverX) KINOMEscan; Cerep
Procedure, shortened: as §1

PRKG2 = molecular target: T25, PRKG2 (Homo sapiens, UniProt Q13237)
T25 construct: purchased Ambit (DiscoverX) KINOMEscan; Cerep
Procedure, shortened: as §1

YES = molecular target: T26, YES (Homo sapiens, UniProt P07947)
T26 construct: purchased Ambit (DiscoverX) KINOMEscan; Cerep
Procedure, shortened: as §1

MET = molecular target: T27, MET (Homo sapiens, UniProt P08581)
T27 construct: purchased Ambit (DiscoverX) KINOMEscan; Cerep
Procedure, shortened: as §1

HIPK3 = molecular target: T28, HIPK3 (Homo sapiens, UniProt Q9H422)
T28 construct: purchased Ambit (DiscoverX) KINOMEscan; Cerep
Procedure, shortened: as §1

ACVR1 = molecular target: T29, ACVR1 (Homo sapiens, UniProt Q04771)
T29 construct: purchased Ambit (DiscoverX) KINOMEscan; Cerep
T29 sequence (Q04771 21-509): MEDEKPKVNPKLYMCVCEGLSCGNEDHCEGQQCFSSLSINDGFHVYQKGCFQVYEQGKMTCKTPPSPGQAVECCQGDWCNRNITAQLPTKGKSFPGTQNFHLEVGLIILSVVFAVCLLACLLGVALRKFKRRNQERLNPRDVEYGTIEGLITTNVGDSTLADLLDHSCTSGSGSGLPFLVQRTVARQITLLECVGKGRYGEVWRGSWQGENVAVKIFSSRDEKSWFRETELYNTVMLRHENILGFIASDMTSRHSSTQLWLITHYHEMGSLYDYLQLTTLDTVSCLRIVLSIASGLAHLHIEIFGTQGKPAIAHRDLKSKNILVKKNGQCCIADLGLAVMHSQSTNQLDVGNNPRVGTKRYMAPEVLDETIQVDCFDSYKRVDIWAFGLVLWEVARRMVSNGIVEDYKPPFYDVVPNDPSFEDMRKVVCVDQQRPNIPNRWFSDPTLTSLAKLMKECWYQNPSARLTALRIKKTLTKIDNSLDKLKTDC
Procedure, shortened: as §1

GRK4 = molecular target: T30, GRK4 (Homo sapiens, UniProt P32298)
T30 construct: purchased Ambit (DiscoverX) KINOMEscan; Cerep
Procedure, shortened: as §1

ASK2 = molecular target: T31, ASK2 (Homo sapiens, UniProt O95382)
T31 construct: purchased Ambit (DiscoverX) KINOMEscan; Cerep
Procedure, shortened: as §1

PIK3CA(M1043I) = molecular target: T32, PIK3CA(M1043I) (Homo sapiens, UniProt P42336, M1043I)
T32 construct: purchased Ambit (DiscoverX) KINOMEscan; Cerep
Procedure, shortened: as §1

TRKb = molecular target: T33, TRKb (Homo sapiens, UniProt Q16620)
T33 construct: purchased Ambit (DiscoverX) KINOMEscan; Cerep
Procedure, shortened: as §1

Q: CCCCN1CCN(C(=N)c2cccc(NC(=O)Nc3ccc(S(=O)(=O)NCc4ccc(S(N)(=O)=O)cc4)cc3)c2)CC1 [SC81458, 4-(3-(3-((4-butylpiperazin-1-yl)(imino)methyl)phenyl)ureido)-N-(4-sulfamoylbenzyl) benzenesulfonamide] was tested. Which remaining binding at 10 µM [1] did it give?
A: 93%

Q: What about the remaining binding at 10 µM (BRAF) of the same compound?
A: 95%

Q: And the remaining binding at 10 µM (PLK4)?
A: 93%

Q: What about the remaining binding at 10 µM (ABL1) of the same compound?
A: 100%

Q: What about the remaining binding at 10 µM (GSK3a) of the same compound?
A: 100%

Q: What about the remaining binding at 10 µM (EPHB1) of the same compound?
A: 84%

Q: What about the remaining binding at 10 µM (MAP4K4) of the same compound?
A: 100%

Q: What about the remaining binding at 10 µM (PDGFRb) of the same compound?
A: 61%

Q: What about the remaining binding at 10 µM (ABL1(T315I)) of the same compound?
A: 100%

Q: What about the remaining binding at 10 µM (YSK4) of the same compound?
A: 100%

Q: What about the remaining binding at 10 µM (ACVRL1) of the same compound?
A: 72%

Q: And the remaining binding at 10 µM (CDK8)?
A: 100%

Q: What about the remaining binding at 10 µM (CAMK1d) of the same compound?
A: 91%

Q: And the remaining binding at 10 µM (JNK1)?
A: 98%

Q: What about the remaining binding at 10 µM (ERK8) of the same compound?
A: 100%

Q: And the remaining binding at 10 µM (PKN2)?
A: 67%

Q: And the remaining binding at 10 µM (FLT3(D835Y))?
A: 89%

Q: What about the remaining binding at 10 µM (IRAK3) of the same compound?
A: 69%

Q: And the remaining binding at 10 µM (MAP4K2)?
A: 100%

Q: And the remaining binding at 10 µM (DAPK3)?
A: 100%

Q: And the remaining binding at 10 µM (p38-alpha)?
A: 88%

Q: What about the remaining binding at 10 µM (PAK2) of the same compound?
A: 100%

Q: What about the remaining binding at 10 µM [2] of the same compound?
A: 100%

Q: And the remaining binding at 10 µM (CDC2L1)?
A: 100%

Q: What about the remaining binding at 10 µM (PRKG2) of the same compound?
A: 80%

Q: And the remaining binding at 10 µM (YES)?
A: 97%

Q: What about the remaining binding at 10 µM (MET) of the same compound?
A: 78%

Q: And the remaining binding at 10 µM (HIPK3)?
A: 99%

Q: And the remaining binding at 10 µM (ACVR1)?
A: 84%

Q: What about the remaining binding at 10 µM (GRK4) of the same compound?
A: 92%

Q: What about the remaining binding at 10 µM (ASK2) of the same compound?
A: 100%

Q: And the remaining binding at 10 µM (PIK3CA(M1043I))?
A: 100%

Q: What about the remaining binding at 10 µM (TRKb) of the same compound?
A: 100%
